Data as given in patent US6423519B1, “Compositions and methods for inhibiting fungal growth” (GPC Biotech Inc., priority 1998, dated 2002).
Like-named read-outs stand apart in the source and are kept apart here. Peptide text beside a SMILES is read from it.

Assays:
human GGTase = human GGTase (Homo sapiens, UniProt P53609); assay: Human GGTase inhibition (Hu GG); type: biochemical
From the text: As described below, a variety of different compounds were synthesized and tested for inhibitory activity against human and Candida GGTase. Exemplary synthesis schemes for generating prenyltransferase inhibitors useful in the methods and compositions of the present invention are shown in FIGS. 1-56. Tables 1-5 provide Structure-Activity relationship (SAR) data for several different classes of prenyltransferase inhibitors.

Hu FT = Hu FT (Homo sapiens, UniProt P49356); assay: Human FT inhibition (Hu FT); type: biochemical; conditions: Table 3 Piperidine Analogs
C. albicans GGPTase = target: T1, C. albicans GGPTase (Candida albicans, UniProt Q8J224+Q9Y764); assay: biochemical
T1 sequence (Q9Y764 1-398): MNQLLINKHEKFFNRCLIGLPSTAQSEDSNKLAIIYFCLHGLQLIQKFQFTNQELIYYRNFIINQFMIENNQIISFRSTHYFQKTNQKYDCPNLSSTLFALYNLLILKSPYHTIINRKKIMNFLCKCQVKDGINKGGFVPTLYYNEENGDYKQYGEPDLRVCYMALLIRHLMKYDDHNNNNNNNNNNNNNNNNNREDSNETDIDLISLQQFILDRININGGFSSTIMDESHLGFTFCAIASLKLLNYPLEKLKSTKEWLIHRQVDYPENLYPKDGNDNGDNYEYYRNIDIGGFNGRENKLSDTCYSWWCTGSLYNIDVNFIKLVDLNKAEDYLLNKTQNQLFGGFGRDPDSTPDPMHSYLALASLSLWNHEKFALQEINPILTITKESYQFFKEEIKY
T1 sequence (Q8J224 1-306): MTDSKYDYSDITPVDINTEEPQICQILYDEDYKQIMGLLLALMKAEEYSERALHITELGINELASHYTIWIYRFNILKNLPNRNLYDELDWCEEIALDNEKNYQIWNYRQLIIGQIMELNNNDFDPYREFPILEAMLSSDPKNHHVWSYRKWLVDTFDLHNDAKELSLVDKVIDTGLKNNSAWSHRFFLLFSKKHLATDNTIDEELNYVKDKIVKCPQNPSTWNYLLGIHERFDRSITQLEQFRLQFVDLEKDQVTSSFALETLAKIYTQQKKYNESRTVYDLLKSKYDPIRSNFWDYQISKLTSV
Description: Plate test compounds (10 μL per well) at predetermined concentration in 50% DMSO. For background control (blank) and reaction control (negative), add 10 μL of 200 μM GGPP and 10 μL 50% DMSO, respectively. Prepare assay buffer: 50 mM Tris, pH7.5, 20 mM KCL, 5 mM MgCl2, 5 μM ZnCl2, 0.5 mM Zw(3-14), 2 mM DTT and 0.1 mg/mL BSA.
Add 20 μL of C. albicans GGPTase and ^3H-GGPP in assay buffer to test compound. Preincubate enzyme and ^3H-GGPP with test compound for 15 minutes at room temperature. Add 20 μL C. albicans Rho in assay buffer. Incubate for 30 minutes at room temperature. Final assay conditions are 2 nM C. albicans GGPTase, 250 nM ^3H-GGPP and 250 nM C. albicans Rho.
Add 100 μL 15 mM GGPP, 50 mM Tris, pH7.0 and 2% BSA to quench reaction. Transfer reaction to Nickel chelate FlashPlate. Allow his-tagged C. albcians Rho to capture onto plate. Rinse plate 1× with 200 μL 20 mM Tris, pH7.0. Read in TOPCOUNT.

[1] = Table 3 Piperidine Analogs, read-out: IC50 (nM) Hu GG
[2] = Table 3 Piperidine Analogs, read-out: IC50 (nM) Ca GG
[3] = Table 1, read-out: IC50 (nM) Hu GG
[4] = Table 1 Peptide Analogs, read-out: IC50 (nM) Hu GG
[5] = read-out: IC50 (nM) Ca GG, Table 1
[6] = Table 1, read-out: IC50 (nM) Ca GG
[7] = Table 1 Peptide Analogs, read-out: IC50 (nM) Ca GG
[8] = Table 5, read-out: IC50 (nM) Human
[9] = Table 5, read-out: IC50 (nM) Candida

Compound	IC50 (human GGTase; [1])	IC50 (C. albicans GGPTase; [2])	IC50 (human GGTase; [3])	IC50 (human GGTase; [4])	further results
N[C@@H](CS)C(=O)N1CCC(C(=O)N[C@@H]2C[C@H]2c2ccccc2)(c2ccccc2)CC1 (relative stereo) [Compound 53v]	> 1000 nM	< 10 nM			IC50 (Hu FT): > 1000 nM
CC(C)C[C@H](NC(=O)[C@H](Cc1cccc2ccccc12)NC(=O)[C@H](CCO)NC(=O)[C@@H](N)CS)C(=O)O [Compound 5a] (HELM PEPTIDE1{C.[O=C([C@H](CCO)N[*:1])[*:2]].[O=C([C@H](Cc1cccc2ccccc12)N[*:1])[*:2]].L}$$$$V2.0)			< 500 nM	< 500 nM	IC50 (C. albicans GGPTase): < 500 nM
CC(C)C[C@H](NC(=O)[C@H](Cc1cccc2ccccc12)NC(=O)[C@H](CN)NC(=O)[C@@H](N)CS)C(=O)O [Compound 5b] (HELM PEPTIDE1{C.[NC[C@H](N[*:1])C(=O)[*:2]].[O=C([C@H](Cc1cccc2ccccc12)N[*:1])[*:2]].L}$$$$V2.0)			< 500 nM	< 500 nM	IC50 (C. albicans GGPTase): < 10 nM; IC50 (C. albicans GGPTase; [5]): < 10 nM
CC(C)C[C@H](NC(=O)[C@H](Cc1cccc2ccccc12)NC(=O)[C@@H](N)CNC(=O)[C@@H](N)CS)C(=O)O [Compound 5c] (HELM PEPTIDE1{[N[C@@H](CN[*:3])C(=O)[*:2]].[O=C([C@H](Cc1cccc2ccccc12)N[*:1])[*:2]].L}|PEPTIDE2{C}$PEPTIDE1,PEPTIDE2,1:R3-1:R2$$$V2.0)			> 1000 nM	> 1000 nM	IC50 (C. albicans GGPTase; [6]): < 1000 nM; IC50 (C. albicans GGPTase; [7]): < 1000 nM
CC(C)C[C@H](NC(=O)[C@H](Cc1cccc2ccccc12)NC(=O)[C@H](CC(=O)O)NC(=O)[C@@H](N)CS)C(=O)O [Compound 5d] (HELM PEPTIDE1{C.D.[O=C([C@H](Cc1cccc2ccccc12)N[*:1])[*:2]].L}$$$$V2.0)			> 1000 nM	> 1000 nM	IC50 (C. albicans GGPTase): > 1000 nM; IC50 (C. albicans GGPTase; [5]): > 1000 nM
CC(C)C[C@H](NC(=O)[C@H](Cc1cccc2ccccc12)NC(=O)CCNC(=O)[C@@H](N)CS)C(=O)O [Compound 5g] (HELM PEPTIDE1{C.[bAla].[O=C([C@H](Cc1cccc2ccccc12)N[*:1])[*:2]].L}$$$$V2.0)			< 500 nM	< 500 nM	IC50 (C. albicans GGPTase; [6]): < 1000 nM; IC50 (C. albicans GGPTase; [7]): < 1000 nM
CC(C)C[C@H](NC(=O)[C@H](Cc1cccc2ccccc12)NC(=O)C[C@@H](NC(=O)[C@@H](N)CS)C(N)=O)C(=O)O [Compound 5h] (HELM PEPTIDE1{[O=C([C@H](Cc1cccc2ccccc12)N[*:1])[*:2]].L}|PEPTIDE2{C.[dD].[am]}$PEPTIDE1,PEPTIDE2,1:R1-2:R3$$$V2.0)			< 500 nM	< 500 nM	IC50 (C. albicans GGPTase; [6]): < 1000 nM; IC50 (C. albicans GGPTase; [7]): < 1000 nM
CC(C)C[C@H](NC(=O)[C@H](Cc1cccc2ccccc12)NC(=O)CNC(=O)[C@@H](N)CS)C(=O)O [Compound 5i] (HELM PEPTIDE1{C.G.[O=C([C@H](Cc1cccc2ccccc12)N[*:1])[*:2]].L}$$$$V2.0)			< 500 nM	< 500 nM	IC50 (C. albicans GGPTase): < 500 nM
CC(C)C[C@H](NC(=O)[C@H](Cc1ccc2ccccc2c1)NC[C@@H](NC[C@@H](N)CS)C(C)C)C(=O)O [Compound 9]			< 100 nM	< 100 nM	IC50 (human GGTase; [8]): < 100 nM; IC50 (C. albicans GGPTase; [6]): < 1000 nM; IC50 (C. albicans GGPTase; [7]): < 1000 nM; IC50 (C. albicans GGPTase; [9]): < 1000 nM
CC(C)C[C@H](NC(=O)c1ccc(NC[C@@H](N)CS)cc1-c1ccccc1)C(=O)O [Compound 17]					IC50 (human GGTase; [8]): < 10 nM; IC50 (C. albicans GGPTase; [9]): < 10 nM
CC(C)C[C@@H](C(=O)O)N(C)C(=O)c1ccc(NC[C@@H](N)CS)cc1-c1ccccc1 [Compound 19]					IC50 (human GGTase; [8]): < 10 nM; IC50 (C. albicans GGPTase; [9]): < 10 nM
CC(C)C[C@H](NC(=O)C1(c2ccccc2)CCN(C(=O)[C@@H](N)CS)CC1)C(=O)O [Compound 53a]	< 100 nM	< 100 nM			
N[C@@H](CS)C(=O)N1CCC(C(=O)NCCCCc2ccccc2)(c2ccccc2)CC1 [Compound 53aa]	> 1000 nM	< 100 nM			
N[C@@H](CS)C(=O)N1CCC(C(=O)NCc2ccccc2-c2ccccc2)(c2ccccc2)CC1 [Compound 53b]	< 1000 nM	< 100 nM			
N[C@@H](CS)C(=O)N1CCC(C(=O)NCc2ccccc2)(c2ccccc2)CC1 [Compound 53bb]	> 1000 nM	< 100 nM			
CC(C)CCNC(=O)C1(c2ccccc2)CCN(C(=O)[C@@H](N)CS)CC1 [Compound 53c]	< 100 nM	< 100 nM			
N[C@@H](CS)C(=O)N1CCC(C(=O)NCCc2cccs2)(c2ccccc2)CC1 [Compound 53d]	> 1000 nM	< 500 nM			
